Test results: patent publication US20130039928A1, “COMPOSITIONS AND METHODS FOR REVERSING CORTICOSTEROID RESISTANCE OR TREATING RESPIRATORY INFECTIONS” (priority 2010, published 2013)

Legend:
[1] = test system: MMP9
[2] = test system: THP-1 macrophages; test: Phagocytosis of FITC-PA in THP-1 macrophages; assay type: cell-based, human
Method: BMDM were isolated by culturing bone marrow cells in the presence of 10 ng/ml granulocyte-macrophage colony-stimulating factor (PeproTech) for 7 days. Murine macrophages were cultured in RPMI 1640 medium supplemented with 10% FBS and 1% penicillin-streptomycin. The human THP-1 cell line (American Type Culture Collection, Manassas, Va.) was grown in RPMI 1640 medium supplemented with 10% non-heat-inactivated fetal bovine serum and β-mercaptoethanol per manufacturer's instructions. Macrophage differentiation occurred through supplementation with 20 ng/ml Phorbol 12-myristate 13-acetate (Sigma Aldrich, St. Louis, Mo.) for 48 h.
Bacterial phagocytosis was quantified using a flow cytometry analysis.
THP-1 cells were infected with lentivirus particles containing MARCO shRNA (Open Biosystems, Huntsville, Ala.). Puromycin supplemented medium ensured positive selection of lentivirus plasmid-expres sing cells, and knockdown of MARCO mRNA and protein was confirmed by both real-time PCR and western blot.

[3] = test system: Pseudomonas aeruginosa; test: Clearance of bacteria in vitro by alveolar macrophages (PA); assay type: cell-based
Method: Human alveolar macrophages were purified from individual BAL samples by centrifugation and seeded onto 6-well tissue culture plates. After incubation for 2 h, non-adherent cells were removed and the adherent cells were incubated with R, S-sulforaphane (5 μM; LKT Laboratories, Inc., St. Paul, Minn.) and or DMSO in RPMI 1640 culture medium with 10% FBS and 1% penicillin-streptomycin (Invitrogen, Carlsbad, Calif.). After 16-20 h, adherent cells were scraped, suspended in RPMI 1640 culture media and plated onto 96-well tissue culture plates for bacterial phagocytosis and clearance assays. […] For MARCO antibody-depletion, alveolar macrophages were incubated with human anti-MARCO antibody (1 μg/ml; (Hycult, Uden, The Netherlands) for 4 hours prior to bacterial challenge.
Sputum isolates of nontypeable H. influenzae and P. aeruginosa obtained from patients with COPD at the Department of Veterans Affairs, Western New York Healthcare System were used (S. Sethi, N. Evans, B. J. Grant, T. F. Murphy, N Engl J Med 347, 465 (Aug. 15, 2002); C. S. Berenson, M. A. Garlipp, L. J. Grove, J. Maloney, S. Sethi, J Infect Dis 194, 1375 (Nov. 15, 2006); T. F. Murphy et al., Am J Respir Crit Care Med 177, 853 (Apr. 15, 2008); T. F. Murphy, A. L. Brauer, A. T. Schiffmacher, S. Sethi, Am J Respir Crit Care Med 170, 266 (Aug. 1, 2004)). For bacterial growth, H. influenzae was cultured on chocolate agar or grown in brain heart infusion broth supplemented with 20 μg/mlNAD and 10 μg/ml hemin at 35° C. in 5% CO2. P. aeruginosa was cultured on LB agar plates or in LB broth at 37° C. For FITC-labeling of bacteria, heat inactivated PA and NTHI (10^9 CFU/ml) were resuspended in 1 ml of labeling buffer (0.1 M NaHCO3, pH 9.2) and incubated with fluorescein isothiocyanate (FITC) (Sigma) under constant stiffing in the dark at room temperature for 1 h. Finally, bacteria were washed three times with PBS and dialyzed overnight against PBS. FITC-labeled bacteria were resuspended with PBS at a concentration of 10^9/ml.
After treatment, macrophages (10^5 cells) were incubated with bacteria (PA or NTHI) for 4 h. Subsequently, 100 μL of cell free culture medium was aseptically plated and cultured on tryptose blood and or chocolate agar plates at 37° C. The number of bacterial colonies was counted after 24 h.

[4] = test system: IL-8 promoter; test: ChIP of IL-8 promoter (histone acetylation, HDAC2 binding) in alveolar macrophages; assay type: cell-based, human
Method: (§1) For inducing corticosteroid resistance, PMs were exposed to cigarette smoke condensate (CSC, 100 μg/ml; Murty Pharmaceuticals, Lexington, Ky.) for 16 h. Exposure to S-nitrosoglutathione (GSNO, 10 μM) was limited to 4 h. […] For assessing corticosteroid responsiveness, macrophages were incubated with dexamethasone (1 μM, Sigma) for 1 h followed by LPS (100 ng/ml, Sigma) for additional 4 h.
Chromatin immunoprecipitation was performed as described previously (Hogg, J. C. & Timens, W., Annu Rev Pathol (2008)). Briefly, cells were fixed in ˜1% formaldehyde in cell growth media for 10 minutes followed by glycine fixation. Cells were then sonicated in ChIP-lysis buffer containing a protease inhibitor cocktail after incubation on ice for 30 minutes. […] sonication, the samples were spun at maximum speed for 12 minutes in a cold microcentrifuge. The supernatants were then addressed as input samples. A part of the input sample was precleared by using a 50% slurry of protein A/G beads prepared in immunoprecipitation (IP) buffer for 2 hours in the cold, following which the beads were centrifuged out and the supernatant was used for IP. Then the precleared samples were incubated with 2 μg of panacetylated histone H4 antibody (ChIP assay kit; Upstate Biotechnology) or anti-HDAC2 antibody from Santa Cruz Biotechnology. As a control, anti-rabbit IgG antibody was added for 1 hour in the cold. The protein A/G bead slurry was added to each reaction and was rotated overnight. The next day, the beads were washed extensively, and the DNA was reverse crosslinked, eluted in elution buffer, and stored at −80° C. until used for sequencing or PCR validation assays. […] This immunoprecipitated DNA was used for PCR amplification by using the specific gene (IL-8 for humans and MCP-1 for mice) promoter PCR assays. PCR primers were used for the IL-8 promoter (forward: 5′-[…]-3′ and reverse: 5′-[…]-3′) and the MCP-1 promoter (forward: 5′-[…]-3′ and reverse: 5′-[…]-3′).

[5] = test system: HDAC2; conditions: CSC-exposed PMs
Method: Mice (C57BL/6 strain, 8-10 weeks old) were used for the studies. Exposure to CS (1 month) was carried out as described previously (Malhotra, D., et al., Am J Respir Crit Care Med 178, 592-604 (2008)). Residential peritoneal macrophages (PMs) isolation was carried out as described previously (Singh, A., et al., PLoS Med 3, e420 (2006)). Alveolar macrophages from mouse were isolated from bronchoalveolar lavage (BAL) fluid (Crimi, E., et al., Free Radic Biol Med 40, 398-406 (2006)).
as §1

[6] = test system: HDAC; conditions: COPD alveolar macrophages, versus vehicle
Method: as §1
(§2) HDAC activity was measured using a fluorescent derivative of ε-acetyl-lysine from Enzo life sciences (Farmingdale, N.Y.) according to the manufacturer's recommendations. HDAC2 was immunoprecipitated for analysis of enzymatic activity.

[7] = test system: GSH; conditions: COPD alveolar macrophages, 5 μM for 16 h
Method: as §1, §2

C[S+]([O-])CCCCN=C=S (centres unmarked) [sulforaphane]
secretory levels of active MMP9 [1]: significantly reduced
levels of S-nitrosylated MMP9 ([1]; biotin-switch assay): significantly reduced
phagocytosis of FITC-Pseudomonas aeruginosa ([2]; THP-1 macrophages transfected with Luc-shRNA): significantly elevated phagocytosis
phagocytosis of FITC-Pseudomonas aeruginosa ([2]; THP-1 macrophages with MARCO-shRNA): but not in MARCO-shRNA
clearance of Pseudomonas aeruginosa (decrease in CFU in culture medium) ([3]; COPD alveolar macrophages, compared to vehicle, 4 h with bacteria): 40-95%
bacterial clearance ([3]; alveolar macrophages from non-COPD subjects): significantly enhanced bacterial clearance
bactericidal activity towards Pseudomonas aeruginosa ([3]; cell-free medium with sulforaphane alone): no bactericidal activity
HDAC2 binding in the IL-8 promoter ([4]; COPD alveolar macrophages): significantly increased the levels of HDAC2 binding
HDAC2 binding in the IL-8 promoter ([4]; in the presence of buthionine sulfoximine): failed to increase HDAC2 binding
histone acetylation on the IL-8 promoter ([4]; sulforaphane treatment with DEX): concomitant reduction
histone acetylation in IL-8 promoter ([4]; sulforaphane, baseline and after LPS): decrease in histone acetylation
levels of SNO-HDAC2 [5]: significant reduction in the levels of SNO-HDAC2
enzymatic activity of total HDAC [6]: significantly elevated
GSH levels [7]: significantly elevated
